Where a name gives a salt, the structure may show the parent alone. Read-outs that look alike come from different tables or passages of the source.
Assays:
Human SSAO = target: T1, Human SSAO (Homo sapiens, UniProt Q16853); assay: In vitro inhibition of SSAO activity, human umbilical cord homogenate, 14C-benzylamine; format: biochemical
T1 construct: rat lung or human umbilical cord homogenates were prepared by chopping the freshly removed tissue; from tissue; host or cells: human umbilical cord homogenate (25,000 g supernatant)
T1 sequence (Q16853 1-763): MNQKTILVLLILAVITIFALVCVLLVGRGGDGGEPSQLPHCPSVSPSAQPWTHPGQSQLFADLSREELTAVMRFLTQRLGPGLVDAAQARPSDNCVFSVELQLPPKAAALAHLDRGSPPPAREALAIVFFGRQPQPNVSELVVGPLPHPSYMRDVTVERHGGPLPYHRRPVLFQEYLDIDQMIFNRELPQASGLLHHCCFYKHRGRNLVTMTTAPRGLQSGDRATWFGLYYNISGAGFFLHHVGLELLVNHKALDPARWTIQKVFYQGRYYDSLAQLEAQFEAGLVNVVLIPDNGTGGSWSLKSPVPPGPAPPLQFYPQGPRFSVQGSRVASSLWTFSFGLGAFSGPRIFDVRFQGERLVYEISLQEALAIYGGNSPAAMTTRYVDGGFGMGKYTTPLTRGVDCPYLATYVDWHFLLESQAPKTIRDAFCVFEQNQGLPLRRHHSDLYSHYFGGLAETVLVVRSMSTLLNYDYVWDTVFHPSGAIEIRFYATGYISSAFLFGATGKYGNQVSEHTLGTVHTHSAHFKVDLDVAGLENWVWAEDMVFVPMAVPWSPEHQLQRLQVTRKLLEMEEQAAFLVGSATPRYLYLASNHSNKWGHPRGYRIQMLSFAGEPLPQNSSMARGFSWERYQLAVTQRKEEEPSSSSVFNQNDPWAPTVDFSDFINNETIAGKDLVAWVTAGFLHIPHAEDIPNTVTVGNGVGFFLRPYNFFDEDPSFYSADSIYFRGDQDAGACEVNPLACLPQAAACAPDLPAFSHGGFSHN
Experimental: SSAO activity was measured as described (Lizcano J M. Et al. (1998) Biochem J. 331:69). Briefly, rat lung or human umbilical cord homogenates were prepared by chopping the freshly removed tissue into small pieces and washing them thoroughly in PBS. The tissue was then homogenized 1:10 (w/v) for lung or 1:5 (w/v) for umbilical cord, in 10 mM potassium phosphate buffer (pH 7.8). Homogenates were then centrifuged at 1000 g at 4° C. for 10 min (lung) or 25,000 g for 30 min (umbilical cord); the supernatants were kept frozen until ready to use. Lung or umbilical cord homogenate was preincubated with clorgyline and pargyline at 1 μM to inhibit MAO-A and -B activity, respectively, and SSAO inhibitors were generally present at 1 nM-10 μM. The reaction was initiated by addition of 20 μM ^14C— benzylamine as substrate. The reaction was carried out at 37° C. in a final volume of 400 μL of 100 mM potassium phosphate buffer (pH 7.2) and stopped with 100 μl of 2M citric acid. Radioactively labeled products were extracted into toluene/ethyl acetate (1:1, v/v) containing 0.6% (w/v) 2,5-diphenyloxazole (PPO) before liquid scintillation counting.

Recombinant human MAO-A = target: T2, Recombinant human MAO-A (Homo sapiens, UniProt P21397); assay: MAO-A activity, colorimetric method, tyramine substrate; format: biochemical; details: for Specificity of SSAO on MAO-A: ratio of IC50 for MAO-A to IC50 for SSAO; for IC50: recombinant human MAO-A
T2 construct: purchased BD Biosciences (MA, USA)
T2 sequence (P21397 1-527): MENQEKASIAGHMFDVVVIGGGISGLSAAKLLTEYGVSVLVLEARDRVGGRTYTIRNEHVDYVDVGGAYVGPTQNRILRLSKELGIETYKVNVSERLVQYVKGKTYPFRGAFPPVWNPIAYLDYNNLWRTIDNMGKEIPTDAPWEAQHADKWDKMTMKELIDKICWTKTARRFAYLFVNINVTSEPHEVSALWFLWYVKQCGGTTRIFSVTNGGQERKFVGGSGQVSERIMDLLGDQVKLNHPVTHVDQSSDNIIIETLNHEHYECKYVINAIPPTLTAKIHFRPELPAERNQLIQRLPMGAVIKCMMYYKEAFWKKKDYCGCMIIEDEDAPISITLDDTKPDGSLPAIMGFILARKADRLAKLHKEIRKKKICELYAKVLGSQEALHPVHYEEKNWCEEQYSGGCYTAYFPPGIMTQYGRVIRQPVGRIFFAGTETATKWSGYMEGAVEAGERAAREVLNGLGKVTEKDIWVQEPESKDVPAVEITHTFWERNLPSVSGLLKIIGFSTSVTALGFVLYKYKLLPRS
Experimental: The specificities of the different SSAO inhibitors was tested by determining their abilities to inhibit MAO-A and MAO-B activities in vitro. Recombinant human MAO-A and human MAO-B enzymes were obtained from BD Biosciences (MA, USA). MAO activity was measured using the colorimetric method essentially as described (Holt, A. et al. (1997) Anal. Biochem. 244: 384). A pre-determined amount of inhibitor diluted in 0.2M potassium phosphate buffer, pH 7.6, was added to each well, if required. The amount of inhibitor varied in each assay but was generally at a final concentration of between 1 nM and 1 mM. Controls lacked inhibitor. The following agents were then added to a final reaction volume of 200 μL in 0.2M potassium phosphate buffer, pH 7.6: 0.04 mg/ml of MAO-A or 0.07 mg/ml MAO-B enzyme, 15 μL of 10 mM tyramine substrate (for MAO-A), or 15 μL 100 mM benzylamine substrate (for MAO-B), and 50 μL of freshly made chromogenic solution. The chromogenic solution contained 750 μM vanillic acid (Sigma#V-2250), 400 μM 4-aminoantipyrine (Sigma #A-4328) and 12 U/mL horseradish peroxidase (Sigma #P-8250) in order to cause a change of 0.5 OD A490 nm/h. This was within the linear response range for the assay. The plates were incubated for 60 min at 37° C. The increase in absorbance, reflecting MAO activity, was measured at 490 nm using microplate spectrophotometer (Power Wave 40, Bio-Tek Inst.). Inhibition was presented as percent inhibition compared to control after correcting for background absorbance and IC50 values calculated using GraphPad Prism software. Clorgyline and pargyline (inhibitors of MAO-A and -B, respectively) at 1 μM, were added to some wells as positive controls for MAO inhibition. […] The compounds described in the present invention are therefore expected to have therapeutic utility in the treatment of diseases and conditions in which the activity of SSAO/VAP-1 plays a role, that is, in SSAO/VAP-1 mediated diseases and conditions.

[1] = human umbilical cord homogenate, read-out: Human SSAO IC50

SMILES | IC50 (Human SSAO; as restated in Example 46, read-out: IC50 for human SSAO) | Specificity of SSAO on MAO-A (Recombinant human MAO-A) | IC50 (Recombinant human MAO-A) | IC50 (Human SSAO; [1])
COc1ccc(C/C(=C/F)CN)cc1.Cl [Compound I-1-Z, (Z)-3-Fluoro-2-(4-methoxybenzyl)-allylamine hydrochloride] | 0.018 µM | 4700 | 85 µM | –
CCOc1ccc(C/C(=C\F)CN)cc1.Cl [Compound I-2-E, (E)-3-Fluoro-2-(4-ethoxybenzyl)-allylamine hydrochloride] | – | 9400 | 85 µM | 0.009 µM
CCOc1ccc(C/C(=C/F)CN)cc1.Cl [Compound I-2-Z, (Z)-3-Fluoro-2-(4-ethoxybenzyl)-allylamine hydrochloride] | – | 7900 | 79 µM | 0.01 µM
Cl.NC/C(=C\F)Cc1ccc(Cl)cc1 [Compound I-3-Z, (Z)-2-(4-Chlorobenzyl)-3-fluoro-allylamine hydrochloride] | – | 3250 | 91 µM | 0.028 µM
COc1cccc(C/C(=C/F)CN)c1.Cl [Compound I-5-Z, (Z)-3-Fluoro-2-(3-methoxybenzyl)allylamine hydrochloride] | – | 2643 | 74 µM | 0.028 µM
CC(C)Oc1ccc(C/C(=C\F)CN)cc1 [Compound I-8-E, (E)-3-Fluoro-2-(4-isopropoxybenzyl)allylamine hydrochloride] | – | 4211 | 48 µM | 0.0114 µM
CC(C)Oc1ccc(C/C(=C/F)CN)cc1.Cl [Compound I-8-Z, (Z)-3-Fluoro-2-(4-isopropoxybenzyl)allylamine hydrochloride] | – | 7000 | 35 µM | 0.005 µM
CSc1ccc(C/C(=C/F)CN)cc1.Cl [Compound I-9-Z, (Z)-3-Fluoro-2-(4-methylthiobenzyl)allylamine hydrochloride] | – | 8385 | 109 µM | 0.012 µM
CC(C)c1ccc(C/C(=C\F)CN)cc1.Cl [Compound I-14-E, (E)-3-Fluoro-2-(4-isopropylbenzyl)allylamine hydrochloride] | – | 5923 | 77 µM | 0.013 µM
CC(C)c1ccc(C/C(=C/F)CN)cc1.Cl [Compound I-14-Z, (Z)-3-Fluoro-2-(4-isopropylbenzyl)allylamine hydrochloride] | – | 11250 | 90 µM | 0.008 µM
CC(C)(C)c1ccc(C/C(=C/F)CN)cc1.Cl [Compound I-15-Z, (Z)-3-Fluoro-2-(4-tert-butylbenzyl)allylamine hydrochloride] | – | 17000 | 119 µM | 0.007 µM
Cl.NC/C(=C\F)Cc1cccc(F)c1 [Compound I-19-Z, (Z)-3-Fluoro-2-(3-fluorobenzyl)allylamine hydrochloride] | – | 1360 | 34 µM | 0.025 µM
NC/C(=C\Cl)CCc1cc(F)cc(C(F)(F)F)c1.O=C(O)C(F)(F)F [Compound I-40-Z, (Z)-3-Chloro-2-(3-fluoro-5-trifluoromethylphenylethyl)allylamine trifluoroacetate] | – | 687 | 632 µM | 0.92 µM
COc1ccc(CC/C(=C\Cl)CN)cc1.Cl [Compound I-44-Z, (E)-3-Chloro-2-(4-methoxyphenylethyl)allylamine hydrochloride] | – | 146 | 105 µM | 0.72 µM
CCOc1ccc(CC/C(=C\Cl)CN)cc1.Cl [Compound I-45-Z, (E)-3-Chloro-2-(4-ethoxyphenylethyl)allylamine hydrochloride] | – | 143 | 20 µM | 0.14 µM
CCCCOc1ccc(CC/C(=C\Cl)CN)cc1.Cl [Compound I-47-E, (E)-3-Chloro-2-(4-n-butoxyphenylethyl)allylamine hydrochloride] | – | 794 | 135 µM | 0.17 µM
NC/C(=C\F)CCc1ccc(F)cc1 [Compound I-99-Z, (Z)-2-(fluoromethylene)-4-(4-fluorophenyl)butan-1-amine] | – | 177 | 23 µM | 0.13 µM
COc1ccc(CC/C(=C/F)CN)cc1.Cl [Compound I-102-Z, (Z)-3-Fluoro-2-[2-(4-methoxyphenyl)-ethyl]-allylamine hydrochloride] | – | 21 | 0.62 µM | 0.03 µM
NC/C(=C\F)CCc1cc(F)cc(C(F)(F)F)c1.O=C(O)C(F)(F)F [Compound I-109-Z, (Z)-3-Fluoro-2-(3-fluoro-5-trifluoromethylphenylethyl)allylamine trifluoroacetate] | – | 78 | 21 µM | 0.27 µM
NC/C(F)=C\Cc1cc(F)cc(C(F)(F)F)c1 [II-1-E, (E)-2-Fluoro-4-(3-fluoro-5-trifluoromethylphenyl)-but-2-enylamine] | – | >2400 | > 87 µM | 0.036 µM
Cl.NC/C(F)=C\Cc1ccc(F)cc1 [II-5-E, (E)-2-Fluoro-4-(4-fluorophenyl)-2-butenylamine hydrochloride] | – | >3333 | > 1000 µM | 0.3 µM
Cc1cccc(C/C=C(/F)CN)c1.Cl [II-6-E, (E)-2-Fluoro-4-(3-methylphenyl)-2-butenylamine hydrochloride] | – | 7692 | – | 0.13 µM
Cl.NC/C(F)=C\Cc1cccc(F)c1 [II-7-E, (E)-2-Fluoro-4-(3-fluorophenyl)-2-butenylamine hydrochloride] | – | 4545 | – | 0.22 µM

From patent US20110269811A1, “INHIBITORS OF SEMICARBAZIDE-SENSITIVE AMINE OXIDASE (SSAO) AND VAP-1 MEDIATED ADHESION USEFUL FOR TREATMENT AND PREVENTION OF DISEASES” (priority 2006, published 2011)
